Measured values as given in patent publication US11091419B2, “Preparation and purification of biphenyldicarboxylic acids” (ExxonMobil Chemical Patents Inc., priority 2017, dated 2021).

Experiment: solubility versus temperature in water (FIG. 2)
Type: physicochemical
Details: read from FIG. 2

- water solubility (BPDA loading in the aqueous phase) (320° C.): ca. 10 wt %
- water solubility (BPDA loading in the aqueous phase) (340° C.): ca. 20 wt %
SMILES: O=C(O)c1ccc(-c2ccc(C(=O)O)cc2)cc1 [4,4′-BPDA, 4,4′-biphenyldicarboxylic acid]
